Laboratory results as given in paper PMC8769378, “Underlining the Importance of Peripheral Protic Functional Groups to Enhance the Proton Exchange of Gd-Based MRI Contrast Agents” (Inorganic Chemistry, 2021).
Marks after values point to notes of the source that are not given here.

Legend:
[1] = not fitted: fixed to the value determined for GdHPADO3A ref 7; cited from earlier work
[2] = Stability and protonation constants of Cu^II complexes by spectrophotometry; assay type: physicochemical
Description: The stability constants of CuL2 were determined by spectrophotometry studying the Cu^2+–L2 systems at the absorption band of Cu^2+ complexes at [H^+] = […] in the wavelength range 210–350 nm. The concentrations of Cu^2+ and L2 were 0.72 mM. The H^+ concentration in the samples was adjusted with the addition of calculated amounts of 3 M HCl. (I = [Na^+] + [H^+] = 0.15, [H^+] ≤ 0.15 M). The samples were kept at 25 °C for 1 week. The absorbance values of the samples were determined at 11 wavelengths (260, 269, 278, 287, 296, 305, 314, 323, 332, 341, and 350 nm). For the calculations of the stability and protonation constants of the […], the molar absorptivities of CuCl2, CuL2, Cu(HL2), Cu(H2L2), and Cu(H3L2) were determined by recording the spectra of 1.0 × 10^–3, 3.0 × 10^–4, 6.0 × 10^–4, and 9.0 × 10^–4 M solutions of CuCl2 and CuL2 in the pH range 1.7–7.5. The pH was adjusted by stepwise addition of concentrated NaOH or HCl solutions. The spectrophotometric measurements were made with the use of a PerkinElmer Lambda 365 UV–vis spectrophotometer at 25 °C, using 1.0 cm cells. The protonation and stability constants were calculated with the PSEQUAD program.[35]
The stability and protonation constants of CaII-, ZnII-, CuII- and GdIII-complexes of L2, expressed by Eqs. (S2) and (S3), were determined by pH-potentiometry and spectrophotometry at 25 °C in 0.15 M […]
where i=0, 1, 2, 3. The KML and KMHiL values of CaII-, ZnII- and CuII-L2 complexes were calculated from the pH-potentiometric titration data obtained at 1:1 metal to ligand concentration ratios. In the calculations, the best fitting of the mL NaOH – pH data was obtained by assuming the formation of […]
ML, MHL, MH2L and MH3L species. […]
– pH data of the “out-of-cell” samples, which had equilibrium pH values in the range of 2.0 – 4.0.
For the complete characterization of the Gd3+-L2 system, the GdL2 complex (which is formed completely at about pH=3.5) was titrated with 0.2 M NaOH solution in the pH range 3.5 – 12.0.
(also on this page, place not known: MH 2L H3L w as derivative s “out -of-cage” *Ln(H 2DOTA)), groups , Ln III-ion donor s . Ln III system. 11,12 th out -of-cage * KGd(H2L) Gd 3+ - ligand 2. 0 Gd 3+-L2 GdL 2 is pH= 3.5) M pH ]L][M[ ]ML[K ML = ]H][LMH[ ]LMH[K 1i i LMHi + − = ]LH][Ln[ )]LH(Ln[K 2 3 2 )LH(Ln 2 + * =) […]
the deprotonation of the Gd(HL) and GdL species, respectively. […]
By taking into account the protonation constants of the ligand L2, the stability constant of the *Gd(H2L2) intermediate and the stability and protonation constant of the GdL2 complex, the species distribution of the Gd3+ - L2 system was calculated (Figure S1). […]
Then, the stability and protonation constants of CuL2 were determined by spectrophotometry. […]

Row | CuH2L (log K) ([2]; 0.15 M NaCl, 25 °C) | CuH3L (log K) ([2]; 0.15 M NaCl, 25 °C) | CuHL (log K, protonation constant of the complex) ([2]; 0.15 M NaCl, 25 °C) | CuL (log K, stability constant) ([2]; spectrophotometry, I = [Na^+]+[H^+] = 0.15 M, [H^+] ≤ 0.15 M, 298 K) | Structure (SMILES) | τM [1]
1 |  |  |  |  | O=C([O-])CN1CCN(CC(=O)[O-])CCN(CC(O)C(=O)O)CCN(CC(=O)[O-])CC1.[Gd+3] (centres unmarked) [GdL2] | 20 ^c ns
2 | 3.36 (2) | 1.36 (8) | 3.84 (2) | 21.87 (6) | O=C(O)CN1CCN(CC(=O)O)CCN(C[C@@H](O)C(=O)O)CCN(CC(=O)O)CC1 [L2, (R)2,2′,2″-(10-(2-Carboxy-2-hydroxyethyl)-1,4,7,10-tetraazacyclododecane-1,4,7-triyl) Triacetic Acid] | 
